{
  "source": "patent US5663207A",
  "about": "“Gem-dichlorocyclopropanes as antitumor agents” (priority 1995, dated 1997)",
  "key": {"[1]": {"assay": "Stability observed during isolation and storage", "format": "physicochemical", "settings": "on concentration, drying or storage", "procedure": "The structures of all compounds were supported by their proton NMR spectra, which were measured on either a Varian EM-360A or XL-300 spectrometer. The spectra are reported in parts per million in CDCl3 unless otherwise noted, with tetramethysilane as the internal standard. Infrared spectra were obtained from KBr pellets on a Beckman Acculab 1 spectrometer and were consistent with the assigned structures. Silica gel (for example, obtained commercially from J. T. Baker) of approximately 40 μm diameter was used for flash chromatography (STILL, W. C., KAHN, M. AND MITRA, A. (1978), \"Rapid chromatographic technique for preparative separations with moderate resolutions\", Journal of Organic Chemistry, 43, 2923), which was performed at 5-10 psi. Petroleum ether was of bp 30°-60° C. When necessary, solvents or reagents were dried by appropriate methods. Evaporations were carried out in vacuo on a rotary evaporator or under a stream of dry N2. Melting points were taken on a Thomas-Hoover capillary melting point apparatus and are uncorrected. Reaction progress and product purity were monitored by analytical TLC on strips of Eastman Kodak plastic-backed SiO2 60 F254 or Al2 O3 F254. Developed strips were viewed under light of 254 and 365 nm wavelengths. Elemental analyses were done by Midwest Microlab Ltd., Indianapolis, IN. Acceptable elemental results are denoted in Table I by the formula, followed by the elements analyzed. Melting points and yields of all compounds were based on pure samples unless otherwise noted, are listed in Table I. Para-Bromoanisole, p-methoxydeoxybenzoin, anisole, p-methoxybenzaldehyde, and 2,3-bis-(p-methoxyphenyl)-acrylic acid and trans-p-methoxystilbene (the olefin), were purchased from Aldrich & Co. The cyclopropanes 1,1-dichloro-cis-2-(p-hydroxyphenyl)-3-phenylcyclopropane (9), and its trans isomer 1,1-dichloro-trans-2-(p-Hydroxyphenyl)-3phenylcyclopropane (17) were prepared from Compounds 8 & 16, respectively. […] Tamoxifen was obtained from Stuart Pharmaceuticals, Division of ICI Americas, Inc., Wilmington, Del. 19897. MER 25 was obtained from the Merrell Dow Research Institute, Division of Merrell Dow Pharmaceuticals, Inc., Cincinnati, Ohio. Protein Assay Reagent, Pierce Chemical Co., Rockford, Ill. 61105. Diethylstilbestrol, β-estradiol, EDTA, DL-dithiothreitol, Sodium molybdate, and Tris (hydroxymethyl) aminomethane hydrochloride were purchased from Sigma Chemical Co., St. Louis, Mo. 63178.\nEssentially, the intermediate olefin acids (Compounds 6 & 12) were obtained from a mixed Perkin and Knoevenagel-type condensation involving the reaction of p-methoxyaldehyde (Compound 4) with phenylacetic acid (Compound 5), or p-methoxyphenylacetic acid (Compound 11) in triethylamine and acetic anhydride. To prepare cis-p-methoxystilbene (Compound 7) or bis-(p-methoxy)-cis-stilbene (Compound 13). Decarboxylation of 6 & 12 with quinoline (prevents isomerizations; KLEIN, J. AND MEYER, A. Y. (1964), \"The decarboxylation of α-cyano-and α-carboxycinnamic acids\", Journal of Organic Chemistry, 29, 1038), and copper chromite at elevated temperature provided 7 & 13. High temperature during distillation caused 8% isomerization to the trans-isomer (15), which was isolated by column chromatography. Dichlorocarbene generation used the catalytic phase transfer method (21, 37) (used extensively in our laboratory) of 50% aqueous solution of NaOH, CHCl3 and benzyltriethylammonium chloride (TEBA) as the anion transfer agent. […]"}, "estrogen receptor [2]": {"target": "T1, estrogen receptor (Rattus norvegicus, UniProt P06211)", "T1 construct": "ovariectomized rat uterine cytosolic estrogen receptor preparation; from tissue; host or cells: uterine cytosol of ovariectomized Sprague-Dawley rats (immature rats from Sasco are named as uterus source, mature ovariectomized rats)", "T1 sequence (P06211 1-600)": "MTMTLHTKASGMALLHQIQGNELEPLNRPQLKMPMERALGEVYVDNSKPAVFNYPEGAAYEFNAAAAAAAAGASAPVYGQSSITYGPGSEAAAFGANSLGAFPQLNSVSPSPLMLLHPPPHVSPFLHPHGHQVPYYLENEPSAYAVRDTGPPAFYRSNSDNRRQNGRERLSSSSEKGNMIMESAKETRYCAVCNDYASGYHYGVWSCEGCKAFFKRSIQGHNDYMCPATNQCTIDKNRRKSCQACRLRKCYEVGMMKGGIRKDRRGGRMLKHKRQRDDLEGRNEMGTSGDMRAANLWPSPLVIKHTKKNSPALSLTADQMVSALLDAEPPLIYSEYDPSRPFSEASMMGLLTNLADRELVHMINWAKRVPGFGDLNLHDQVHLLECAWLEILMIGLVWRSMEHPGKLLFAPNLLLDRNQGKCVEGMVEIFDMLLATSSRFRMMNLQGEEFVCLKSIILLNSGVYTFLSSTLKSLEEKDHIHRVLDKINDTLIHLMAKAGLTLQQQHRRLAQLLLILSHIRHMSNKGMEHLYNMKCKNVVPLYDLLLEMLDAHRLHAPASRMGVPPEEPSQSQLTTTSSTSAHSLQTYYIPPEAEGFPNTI", "settings": "relative to estradiol = 100%; Day et al., J. Med. Chem. 34, 842-851 (1991); cited from earlier work"}, "[3]": {"tested_on": "MCF-7 human breast cancer cells", "settings": "cited from earlier work; for MCF-7 Inhibition: 10^-6 M, Day et al., J. Med. Chem. 34, 842-851 (1991)"}, "[4]": {"tested_on": "Immature Swiss-Webster female mice (uterine weight)", "assay": "Uterotrophic assay for estrogenic activity in immature mice", "format": "in vivo, mouse (Swiss-Webster)", "settings": "doses of 5, 25 and 100 μg (total dose)", "from_the_text": "(§1) The biological evaluation of the test compounds consisted of the in vitro rat cytosolic estradiol receptor binding assay, the in vivo immature mouse uterotrophic (estrogenic) and antiuterotrophic (antiestrogenic) assays, and the in vitro suppression of the proliferation of the ER positive MCF-7 human breast cancer cell line.\n(§2) Vital-free immature female Swiss-Webster mice were obtained at 17-19 days of age from Sasco weighing 8-10 g, and were used in the uterotrophic and antiuterotrophic assays. Immature female Sprague-Dawley rats, obtained at 17-19 days of age from Sasco, weighing 28-33 g, were used as sources of uteri for the estradiol receptor binding assay. Animals were housed in wire topped polycarbonate cages at six animals per cage, with the environment controlled at 25° C. and a 12 h light/dark cycle. The animals received a diet of Wayne Lab Blox rodent chow and tap water ad libitum.\nImmature Swiss-Webster female mice (8-15 g) at 17-19 days of age were used. Estradiol was used in the dosage range of […] (total dose) as the assay standard. Each cyclopropyl analogue was examined at doses of 5, 25, and 100 μg (total dose). […] Estrogenic activity was measured as an increase in uterine weight produced by each test compound."}, "[5]": {"tested_on": "MCF-7 human breast cancer cells", "assay": "In vitro MCF-7 human breast cancer cell growth inhibition assay", "format": "cell-based", "settings": "10^-6 M", "from_the_text": "as §1, with “line. Estradiol (pure agonist), TAM (agonist in mice and antagonist in MCF-7), MER 25 (pure antagonist) and Analog II (antagonist in mice) were used in the assay as standards.” for “line.”\nMCF-7 (estrogen-receptor positive) human breast cancer cells (obtained from the Michigan Cancer Foundation, Detroit, Mich.) were grown at 37° C. in 75 cm^2 tissue culture (T-75) flasks, as monolayer cultures in RPMI 1640 phenol red-free media supplemented with 2 mM L-glutamine, gentamicin (50 μg/mL), penicillin (100 units/mL), streptomycin (100 μg/mL ) and calf serum (5%). Cultures were grown in an incubator 37° C. in a humid 5% CO2 atmosphere, and fed on alternate days. Expotential growth was maintained by subculturing at eight day intervals when the cells per T-75 flask reached 10 to 12×10^6 cells. Cells were trypsinized, washed and plated in multiwell plates at a density of 5×10^4 cells/well in 3 mL of RPMI 1640 media. The cells were allowed to attach and were in logarithmic growth when the test compounds were added. The test compounds (10^-6 M) in the presence or absence of a 10-fold lower dose of estradiol were dissolved in a polyethylene glycol 400: ethanol (55:45) mixture and added in the culture media in duplicate. Control samples received vehicle alone at the same concentration used in the treatment groups. The final concentration of the vehicle mixture was 0.1% of the incubation media. Cell growth was measured on alternate days using the hemocytometric trypan blue exclusion method. Percent inhibition of MCF-7 cells was calculated as the ratio of the control mean cell count per well minus the treatment group mean cell count per well to the control mean cell count per well, multiplied by 100.\n^b % MCF7 inhibition was calculated as follows: […]\nThirteen compounds, Analog II, TAM, and MER 25 were tested for their antiproliferative activity in the MCF-7 human breast cancer cell line (Table II). Compounds were tested at a concentration of 10^-6 M in the presence or absence of 10^-7 M estradiol to assess their ability to alter the growth of the calls (Table II). The 10^-6 M concentration was selected since it was reported that the inhibition of the MCF-7 cells by antiestrogens and TAM occurred either at that concentration or less, and were both selective and estrogen receptor specific. Concentrations of antiestrogens greater than 5×10^-6 M were reported to have nonspecific cytotoxic effects (BRIAND, P. AND […], A. E. (1984), \"Effect of estrogen and antiestrogen on the human breast cancer cell line MCF-7 adapted to growth at low serum concentration\", Cancer Research, 44, 1114)."}, "estrogen receptor [6]": {"target": "T1, estrogen receptor", "assay": "Receptor binding assay: displacement of [3H]-estradiol from rat uterine cytosol", "design": "species or system rat (Sprague-Dawley)", "from_the_text": "as §1, with “line. Estradiol (pure agonist), TAM (agonist in mice and antagonist in MCF-7), MER 25 (pure antagonist) and Analog II (antagonist in mice) were used in the assay as standards.” for “line.”\nas §2\nThe RBAs of the test compounds were determined by the displacement of [^3 H]-estradiol in vitro, as described previously (DAY, B. W., […], R. A., JAIN, P., PENTO, J. T., MOUSISSIAN, G. K. AND MEYER, K. L. (1991), \"Synthesis and biological evaluation of a series of 1,1-dichloro-2,2,3-triarylcyclopropanes as pure antiestrogens\", Journal of Medicinal Chemistry, 34, 842; KORENMAN, S. G. (1969), \"Comparative binding affinity of estrogens and its relation to estrogenic potency\", Steroid, 13, 163). Mature female Sprague-Dawley rats were ovariectomized at least two weeks prior to the receptor binding experiment. Each test compound was assayed at three concentrations in duplicate over a range of 10^-3 -10^-5 M and 10^-6 -10^-8 M for the estradiol standard. The non-specific binding was determined by a parallel incubation of each compound with the addition of diethylstilbestrol to give a final concentration of 2×10^-5 M DES which was sufficient to saturate all the estrogen receptors present in the cytosolic fraction. Specific displacement for each compound was determined by subtraction of nonspecific displacement from total displacement. The [^3 H]-estradioldisplacement curve for each test compound was determined by linear repression analysis and plotted graphically. The relative binding affinity for each compound was calculated (BLISS, C.I. (1967), \"The statistics in biology\", McGraw Hill, Inc: New York).\n^a Determined by competitive radiometric binding assay with rat\nuterine cytosol as a source of receptor, [^3 H]estradiol as tracer,\nand dextrancoated charcoal as absorbant for free ligand.\n^c Binding affinities are expressed relative to that of estradiol =\n100% (RBA = relative binding affinity) and are the average of duplicate\ndeterminations minus nonspecific binding.\nThe relative binding affinities (RBAs), as determined by the competitive radiometric binding assay and measured by [^3 H]-estradiol displacement from the ovariectomized rat uterine cytosolic estrogen receptor preparation, after subtracting non-specific receptor binding, were calculated for all of the synthesized target compounds, TAM, MER 25, Analog II, and estradiol. The displacement curves were plotted as percent receptor-bound [^3 H]-estrodiol versus concentration of test compounds (not shown) and the receptor binding affinity of each compound is presented in Table II."}},
  "note": "Entries after “also recorded” stand apart in the source; their conditions may differ. Where two headings read alike, the source gives them in different places.",
  "data": [
    {"compound": "Oc1ccc([C@H]2[C@H](c3ccccc3)C2(Cl)Cl)cc1", "note": "(relative stereo) [Compound 17, 1,1-dichloro-trans-2-(p-hydroxyphenyl)-3-phenylcyclopropane]", "values": [
      {"measurement": "stability (in words)", "setting": "[1]", "result": "underwent gradual color changes when concentrated"}
    ]},
    {"compound": "Oc1ccc(C2(c3ccc(O)cc3)C(c3ccccc3)C2(Cl)Cl)cc1", "note": "(stereo not shown) [Compound 36]", "values": [
      {"measurement": "stability (in words)", "setting": "[1]", "result": "Drying of phenol 36 at a high temperature resulted in the formation of an indene"}
    ]},
    {"compound": "Oc1ccc([C@H]2[C@@H](c3ccccc3)C2(Cl)Cl)cc1", "note": "(relative stereo) [Compound 9, 1,1-dichloro-cis-2-(p-hydroxyphenyl)-3-phenylcyclopropane]", "values": [
      {"measurement": "stability (in words)", "setting": "[1]", "result": "instability to air and light; also recorded: underwent gradual color changes when concentrated"}
    ]},
    {"compound": "ClC1(Cl)[C@H](c2ccccc2)[C@@H]1c1ccccc1", "note": "[Analog II]", "values": [
      {"measurement": "RBA (relative binding affinity)", "setting": "estrogen receptor [2]", "result": 0.01, "unit": "%"},
      {"measurement": "MCF-7 Inhibition", "setting": "[3]", "result": 20.4, "unit": "%"}
    ]},
    {"compound": "COc1ccc([C@H]2[C@@H](c3ccccc3)C2(Cl)Cl)cc1", "note": "(relative stereo) [Compound 8, 1,1-Dichloro-cis-2-(p-methoxyphenyl)-3-phenylcyclopropane]", "values": [
      {"measurement": "uterine weight response (estrogenic activity, in words)", "setting": "[4]", "result": "well below the control group"},
      {"measurement": "effect on MCF-7 cell growth (in words)", "setting": "[5]", "result": "inhibited cell growth"},
      {"measurement": "inhibition at 1 µM", "setting": "[5]; Homo sapiens, MCF7, versus control mean cell count, read-out: MCF-7 Inhibition", "result": 25.3, "unit": "%"},
      {"measurement": "RBA ranking (in words)", "setting": "estrogen receptor [6]; among the compounds tested", "result": "lowest RBA"},
      {"measurement": "[3H]-estradiol displacement curve (in words)", "setting": "estrogen receptor [6]; rat uterine cytosolic estrogen receptor", "result": "dose-dependent displacement curves with shallower slopes than their acetoxy and phenolic analogues"},
      {"measurement": "RBA (relative binding affinity)", "setting": "estrogen receptor [6]; relative to estradiol = 100%, given as dash with footnote e", "result": "--^e (Less than 0.01%.)"}
    ]},
    {"compound": "CC/C(=C(\\c1ccccc1)c1ccc(OCCN(C)C)cc1)c1ccccc1", "note": "[Tamoxifen]", "values": [
      {"measurement": "MCF-7 Inhibition", "setting": "[3]", "result": 25.6, "unit": "%"},
      {"measurement": "concentration at which inhibition of MCF-7 cells occurred", "setting": "[3]; reported as selective and estrogen receptor specific", "result": "≤ 10^-6 M"}
    ]}
  ]
}
